Results as given in ChEMBL document CHEMBL1201862, “PubChem BioAssay data set” (2004).
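Compound exposure: 48 hours, 5 concentrations, 96-well plates. GI50 is the concentration that inhibits growth by half.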 Activity calls are given as the source filed them. Rule as the data show it: active = GI50 up to about 1.1 µM and inactive = higher.

Key:
Assay in all cases: DTP human tumour cell line panel, 48 h
[1] = test system: T47D
[2] = test system: SK-MEL-2
[3] = test system: IGROV-1
[4] = test system: RPMI-8226
[5] = test system: HCT-15
[6] = test system: OVCAR-5
[7] = test system: HCC 2998
[8] = test system: K562
[9] = test system: NCI/ADR-RES
[10] = test system: SK-MEL-5
[11] = test system: COLO 205
[12] = test system: PC-3
[13] = test system: HOP-62
[14] = test system: SW-620
[15] = test system: MOLT-4
[16] = test system: BT-549
[17] = test system: SF-268
[18] = test system: MDA-MB-231
[19] = test system: TK-10
[20] = test system: OVCAR-4

Structure (SMILES) | GI50 [1] | GI50 [2] | GI50 [3] | GI50 [4] | GI50 [5] [µM] | GI50 [6] | GI50 [7] | GI50 [8] | GI50 [9] | GI50 [10] | GI50 [11] | GI50 [12] | GI50 [13] | GI50 [14] | GI50 [15] | GI50 [16] | GI50 [17] | GI50 [18] | GI50 [19] | GI50 [20]
CN1CCN(/C(N)=C(\C#N)C(=O)Nc2ccccc2)CC1 | > 100 µM (inactive) | > 100 µM (inactive) | > 100 µM (inactive) | > 100 µM (inactive) | > 100 | > 100 µM (inactive) | > 100 µM (inactive) | > 100 µM (inactive) | > 100 µM (inactive) | > 100 µM (inactive) | > 100 µM (inactive) | > 100 µM (inactive) | > 100 µM (inactive) | > 100 µM (inactive) | > 100 µM (inactive) | > 100 µM (inactive) |  |  |  | 
Brc1ccc(-c2nc(-c3ccc(Br)cc3)n(-c3ccccc3)n2)cc1 | 12.9 µM (inactive) | > 100 µM (inactive) | > 100 µM (inactive) |  | > 100 | > 100 µM (inactive) |  |  | > 100 µM (inactive) | > 100 µM (inactive) | 27.2 µM (inactive) | > 100 µM (inactive) | > 100 µM (inactive) | > 100 µM (inactive) | 53.7 µM (inactive) | > 100 µM (inactive) | > 100 µM (inactive) | > 100 µM (inactive) | > 100 µM (inactive) | > 100 µM (inactive)
CN(C)CCCNc1ccc([N+](=O)[O-])c2nc3ccccc3c(N)c12 | 0.914 µM (active) | 1.38 µM (inactive) | 0.659 µM (active) | 0.266 µM (active) | 0.423 | 2.49 µM (inactive) |  | 0.312 µM (active) | 0.397 µM (active) | 1.21 µM (inactive) | 0.243 µM (active) | 0.394 µM (active) | 2.36 µM (inactive) | 0.22 µM (active) | 0.278 µM (active) | 1.48 µM (inactive) | 0.839 µM (active) | 0.598 µM (active) | 2.27 µM (inactive) | 0.169 µM (active)
O=C1C=C(N2CCN(c3ncccn3)CC2)C(=O)c2c(O)ccc(O)c21 | > 100 µM (inactive) |  | > 100 µM (inactive) |  | > 100 | > 100 µM (inactive) | > 100 µM (inactive) | > 100 µM (inactive) | > 100 µM (inactive) | 21.5 µM (inactive) | > 100 µM (inactive) | > 100 µM (inactive) | 49.2 µM (inactive) | > 100 µM (inactive) | > 100 µM (inactive) | > 100 µM (inactive) | > 100 µM (inactive) | > 100 µM (inactive) | > 100 µM (inactive) | > 100 µM (inactive)
O=c1[nH]nc(-c2ccc([N+](=O)[O-])cc2)[nH]1 | > 100 µM (inactive) | > 100 µM (inactive) | > 100 µM (inactive) | > 100 µM (inactive) | > 100 | > 100 µM (inactive) | > 100 µM (inactive) | > 100 µM (inactive) | > 100 µM (inactive) |  | > 100 µM (inactive) | > 100 µM (inactive) | > 100 µM (inactive) | > 100 µM (inactive) | > 100 µM (inactive) | 19.1 µM (inactive) | > 100 µM (inactive) |  | > 100 µM (inactive) | > 100 µM (inactive)
COc1cc2c3c(n(C)c(=O)c2cc1OC)-c1cc2c(cc1/C3=C\CCCCCBr)OCO2 | 2.75 µM (inactive) | 32.2 µM (inactive) | 0.0546 µM (active) | 5.41 µM (inactive) | 21.3 | 67.9 µM (inactive) |  | 6.3 µM (inactive) | 32.4 µM (inactive) | 4.07 µM (inactive) | 47.3 µM (inactive) | 28.8 µM (inactive) |  | 8.32 µM (inactive) | 1.45 µM (inactive) | 93.1 µM (inactive) | 4.31 µM (inactive) | 40.3 µM (inactive) | 20.6 µM (inactive) | 26.9 µM (inactive)
COc1ccc(OC)c(C#Cc2ccc(OC)c(C(=O)NCCc3ccc(F)cc3)c2)c1 | 2.86 µM (inactive) | 5.05 µM (inactive) | 3.53 µM (inactive) | 3.32 µM (inactive) | 4.45 | > 100 µM (inactive) | 2.27 µM (inactive) | 2.39 µM (inactive) | 7.8 µM (inactive) | 4.42 µM (inactive) | 5.22 µM (inactive) | 5.14 µM (inactive) |  | 4.02 µM (inactive) | 2.19 µM (inactive) | > 100 µM (inactive) | > 100 µM (inactive) |  | > 100 µM (inactive) | 6.32 µM (inactive)
N#Cc1c2c(c(N3CCOCC3)n3c1nc1ccccc13)CCCC2 | 19.2 µM (inactive) | 16.5 µM (inactive) | 16.6 µM (inactive) |  | 17.8 | 21.1 µM (inactive) | 21.8 µM (inactive) | 25.1 µM (inactive) | 17.9 µM (inactive) | 18.7 µM (inactive) | 20.9 µM (inactive) | 21.9 µM (inactive) |  | 14.4 µM (inactive) | 8.81 µM (inactive) | 40.1 µM (inactive) | > 100 µM (inactive) | 21.3 µM (inactive) | 23.1 µM (inactive) | 20 µM (inactive)
COC(=O)C1CCC(=O)N1C(c1ccccc1)c1cc(OC)c(OC)c(OC)c1 (stereo not drawn) | 55.8 µM (inactive) |  | 63.5 µM (inactive) |  | 42.6 | > 100 µM (inactive) | > 100 µM (inactive) | 21.8 µM (inactive) | 76 µM (inactive) |  | 45.5 µM (inactive) | 51.3 µM (inactive) | > 100 µM (inactive) | 46.7 µM (inactive) | 31.8 µM (inactive) | 92.7 µM (inactive) | > 100 µM (inactive) | 41.3 µM (inactive) | > 100 µM (inactive) | 49.7 µM (inactive)
c1cc2c(cc1C(N1CCNCC1)N1CCNCC1)OCO2 | > 100 µM (inactive) | > 100 µM (inactive) | > 100 µM (inactive) | 40.9 µM (inactive) | > 100 | > 100 µM (inactive) |  | 2.42 µM (inactive) | > 100 µM (inactive) | > 100 µM (inactive) | > 100 µM (inactive) | > 100 µM (inactive) | > 100 µM (inactive) | > 100 µM (inactive) |  | > 100 µM (inactive) | > 100 µM (inactive) | > 100 µM (inactive) | > 100 µM (inactive) | > 100 µM (inactive)
CN1CCN(C(=S)N(C)C(=O)c2cccs2)CC1 | > 100 µM (inactive) | > 100 µM (inactive) | > 100 µM (inactive) | > 100 µM (inactive) | > 100 | > 100 µM (inactive) | > 100 µM (inactive) | > 100 µM (inactive) |  | > 100 µM (inactive) | > 100 µM (inactive) |  |  | > 100 µM (inactive) | > 100 µM (inactive) | > 100 µM (inactive) |  | > 100 µM (inactive) | > 100 µM (inactive) | > 100 µM (inactive)
Cc1ccc([N+](=O)[O-])cc1S(=O)(=O)Nc1ccc(C2=NN(c3ccc([N+](=O)[O-])cc3[N+](=O)[O-])C(c3ccccc3O)C2)cc1 (stereo not drawn) | 27.6 µM (inactive) | 20.7 µM (inactive) | 26.4 µM (inactive) | 49.1 µM (inactive) | 27 | > 100 µM (inactive) |  | 21.8 µM (inactive) | 27.9 µM (inactive) | 20 µM (inactive) | 32.4 µM (inactive) | 36.4 µM (inactive) | 36.3 µM (inactive) | 63.7 µM (inactive) | 12.7 µM (inactive) | 28.2 µM (inactive) | 35.6 µM (inactive) | 20.6 µM (inactive) | 43.7 µM (inactive) | 31 µM (inactive)
CC(C)CCCC(C)[C@H]1CCC2[C@@H]3CCC4Cc5nc6c(nc5C[C@]4(C)C3CC[C@@]21C)CC1CC[C@@H]2C(CC[C@@]3(C)C2CC[C@@H]3O)[C@@]1(C)C6 (stereo partly drawn) | > 100 µM (inactive) | > 100 µM (inactive) | > 100 µM (inactive) | > 100 µM (inactive) | > 100 | > 100 µM (inactive) |  | > 100 µM (inactive) | > 100 µM (inactive) | > 100 µM (inactive) | > 100 µM (inactive) | > 100 µM (inactive) | > 100 µM (inactive) | > 100 µM (inactive) | > 100 µM (inactive) | > 100 µM (inactive) | > 100 µM (inactive) | > 100 µM (inactive) | > 100 µM (inactive) | > 100 µM (inactive)
Cc1ccc(/N=N/c2c(O)ccc3ccccc23)c(C)c1 | > 100 µM (inactive) | > 100 µM (inactive) | > 100 µM (inactive) | > 100 µM (inactive) | > 100 | > 100 µM (inactive) |  | > 100 µM (inactive) | > 100 µM (inactive) | > 100 µM (inactive) | > 100 µM (inactive) | > 100 µM (inactive) | > 100 µM (inactive) | > 100 µM (inactive) | > 100 µM (inactive) | > 100 µM (inactive) | > 100 µM (inactive) | > 100 µM (inactive) | > 100 µM (inactive) | > 100 µM (inactive)
C[n+]1c2ccccc2n2c3ccccc3c(NCCc3ccccn3)c(C#N)c21 | 2.36 µM (inactive) | 2.61 µM (inactive) |  | 1.64 µM (inactive) | 2.33 | 2 µM (inactive) |  | 2.21 µM (inactive) | 13.8 µM (inactive) | 2.9 µM (inactive) | 1.68 µM (inactive) | 2.55 µM (inactive) | 2.11 µM (inactive) | 0.661 µM (active) | 1 µM (active) | 5.89 µM (inactive) | 2.36 µM (inactive) | 1.42 µM (inactive) | 1.14 µM (inactive) | 0.804 µM (active)
